According to PMC3515450, “Mechanistic and Structural Understanding of Uncompetitive Inhibitors of Caspase-6” (PLoS ONE, 2012):

Target: T1, apo-caspase-6 (Homo sapiens, UniProt P55212)
T1 construct: Residues 24-179 and 194-293 from caspase-6 cDNA (Origene) were cloned into pET-24b and pET-23b vectors; 6x histidine tag; made in house; host or cells: E. coli (as above), BirA co-expressed
T1 sequence (P55212 24-179): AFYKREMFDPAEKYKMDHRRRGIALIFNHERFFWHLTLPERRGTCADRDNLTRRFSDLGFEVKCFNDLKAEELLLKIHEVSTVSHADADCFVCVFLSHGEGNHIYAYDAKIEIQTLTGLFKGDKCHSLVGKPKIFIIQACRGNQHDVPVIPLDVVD
T1 sequence (P55212 194-293): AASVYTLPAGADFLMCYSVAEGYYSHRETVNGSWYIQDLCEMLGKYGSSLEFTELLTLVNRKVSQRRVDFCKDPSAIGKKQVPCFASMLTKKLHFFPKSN
Experiment: SPR binding to apo-caspase-6
Details: Rmax locked to control compound
Description: For SPR experiments, caspase-6 was cloned to include a C-terminal avi-tag (Avidity) and expressed and purified as above, except that biotin ligase (BirA) was co-expressed during fermentation. […] Avi-tagged zymogen C163A-caspase-6 was processed to mature C163A-caspase-6 by the addition of active caspase-3 and caspase-6. Chip preparation for neutravidin-based capture was performed as previously described using either a Biacore T100 or Biacore 3000 instrument (GE Healthcare). Running buffer was 50 mM HEPES pH 7.2, 100 mM MgSO4, 30 mM NaCl, 1 mM TCEP, 0.01% Triton X-100, 1% PEG-3350, 2.5% DMSO, and the instrument was set for 20 degrees C. After capture one flow cell of apo-caspase-6 was exposed to a continuous flow of 20 µM VEID-FMK. A rise in signal could be detected for the binding/reacting of the VEID-FMK and exposure was continued until no additional rise in response was observed (∼45 minutes) indicating full saturation of all binding sites. There was no observed decrease in signal upon washing, indicating the reaction was irreversible. […] Fluorescent substrates were too limiting in solubility and quantity to be added to the running buffer, so substrates were mixed at a concentration equal to their Kmapp with 3 and injected together over the indicated surfaces. […]

Kd: 192 µM
Structure (SMILES): COc1ccc(-c2cc(C(=O)N[C@@H](CO)Cc3cccc(C#N)c3)co2)cc1OC [Compound 3]
